Data from US20260152503A1, “SPIROBICYCLIC COMPOUNDS” (ACERAND THERAPEUTICS (HONG KONG) LIMITED, priority 2022, published 2026).

Experiments:
Format in all cases: cell-based
FGFR2 = molecular target: T1, FGFR2 (Homo sapiens, UniProt P21802, K310R/N549K); assay: pERK potency assay (In Cell ELISA), AN3CA cells; conditions: for IC50: pERK, AN3CA (FGFR2/k310R, N549K) cells, 3 hours; for FGFR1 IC50/FGFR2 IC50 / FGFR3 IC50/FGFR2 IC50: selectivity ratio, pERK potency; for FGFR1 IC50/FGFR2 IC50: FGFR2 relative to FGFR1; for FGFR3 IC50/FGFR2 IC50: FGFR2 relative to FGFR3
T1 construct: in FGFR aberrations of AN3CA (FGFR2/k310R, N549K); host or cells: AN3CA
Text: (§1) The purpose of this assay is to measure the ability of test compounds to inhibit FGFR mediated downstream signaling cascades, i.e., ERK phosphorylation in cells with FGFR aberrations. FGFR aberrations become constitutively active and thus induces cascades of cellular signaling events that result in increased phosphorylation of ERK at Threonine 202 and Tyrosine 204 (pERK). The procedure called In Cell ELISA described below measures the level of cellular pERK in response to FGFR specific inhibitor compounds in FGFR aberrations of AN3CA (FGFR2/k310R, N549K), DMS114 (FGFR1 amplification), RT112 (FGFR3 overexpression/FGFR3-TACC3 fusion) and Hep3B (FGF19 amplification) cells. AN3CA, DMS114 and Hep3B cells are from ATCC. RT112 cells are from Sigma. DMS114 cells are grown and maintained using RPMI-1640 medium supplemented with 10% heat-inactivated fetal bovine serum. AN3CA, Hep3B and RT112 cells are grown and maintained using DMEM supplemented with 10% heat-inactivated fetal bovine serum. On the day before test compound addition, cells are plated in poly-D-lysine coated 96-well cell culture plates (Corning® BioCoat® Cat #356640) at 40000 cells/well/100 μL and grown overnight in a 37° C., 5% CO2 incubator. Test compounds are prepared with 4-fold serial dilutions in DMSO, with a top concentration of 10 μM. On the day of the assay, 50 μL of test compound diluted in media was added to each well of cell culture plate with the final concentration of compounds spanning from 0.000038 μM to 10 μM. After compound addition, cells are incubated for 3 hours at 37° C., 5% CO2 and then the culture medium is removed. Cells are fixed with 4% formaldehyde in phosphate-buffered saline (PBS) and incubated at RT for 20 min. The plate is then washed three times with PBST (PBS with 0.05% tween-20), followed by the incubation with 100 μL of pre-cooled methanol at −20° C. for 20 min. After incubation, methanol is removed, and the plate is washed once with PBST. Cells are permeabilized with 100 µL/well of 0.1% Triton X-100 in PBS at RT for 20 min and then quenched with quenching buffer (PBST containing 1% H2O2 and 0.1% sodium azide) for 20 min at RT with gentle shaking. After washing once with PBST, blocking buffer (250 ul/well, Pierce™ Protein-Free-PBS Blocking Buffer, Cat #37572) was then added to the cells for 1-h incubation at RT, followed by anti-pERK antibody (cell signaling, 1:1000 dilution in 5% BSA in PBST) incubation overnight at 4° C. and secondary antibody-HRP (Jackson immunoresearch, 1:3000 dilution in 5% BSA in PBST) incubation at RT for 1 h. PBST wash is carried out after each step three times. Before the addition of the substrate (Advansta ELISABright), the plate is washed with PBS twice to remove detergent residues. Cellular pERK level is determined using the microplate reader (Biotek Synergy H1) to detect the chemiluminescence signal. IC50 is determined by fitting a 4-parameter sigmoidal concentration-response model. FGFR wild type cells (H1975, PC-9 and AGS) are used to serve as negative control (FGFR selectivity) with the same assay procedures described above.

FGFR1 = molecular target: T2, FGFR1 (Homo sapiens, UniProt P11362); assay: pERK potency assay (In Cell ELISA), DMS114 cells; conditions: DMS114 (FGFR1 amplification) cells, 3 hours
T2 construct: DMS114 (FGFR1 amplification); host or cells: DMS114
Text: as §1

FGFR3 = molecular target: T3, FGFR3 (Homo sapiens, UniProt P22607); assay: pERK potency assay (In Cell ELISA), RT112 cells; conditions: RT112 (FGFR3 overexpression/FGFR3-TACC3 fusion) cells, 3 hours
T3 construct: RT112 (FGFR3 overexpression/FGFR3-TACC3 fusion); host or cells: RT112; the other entry of the earlier key: TACC3 (Q9Y6A5, Transforming acidic coiled-coil-containing protein 3)
Text: as §1

T2 sequence (P11362 22-822): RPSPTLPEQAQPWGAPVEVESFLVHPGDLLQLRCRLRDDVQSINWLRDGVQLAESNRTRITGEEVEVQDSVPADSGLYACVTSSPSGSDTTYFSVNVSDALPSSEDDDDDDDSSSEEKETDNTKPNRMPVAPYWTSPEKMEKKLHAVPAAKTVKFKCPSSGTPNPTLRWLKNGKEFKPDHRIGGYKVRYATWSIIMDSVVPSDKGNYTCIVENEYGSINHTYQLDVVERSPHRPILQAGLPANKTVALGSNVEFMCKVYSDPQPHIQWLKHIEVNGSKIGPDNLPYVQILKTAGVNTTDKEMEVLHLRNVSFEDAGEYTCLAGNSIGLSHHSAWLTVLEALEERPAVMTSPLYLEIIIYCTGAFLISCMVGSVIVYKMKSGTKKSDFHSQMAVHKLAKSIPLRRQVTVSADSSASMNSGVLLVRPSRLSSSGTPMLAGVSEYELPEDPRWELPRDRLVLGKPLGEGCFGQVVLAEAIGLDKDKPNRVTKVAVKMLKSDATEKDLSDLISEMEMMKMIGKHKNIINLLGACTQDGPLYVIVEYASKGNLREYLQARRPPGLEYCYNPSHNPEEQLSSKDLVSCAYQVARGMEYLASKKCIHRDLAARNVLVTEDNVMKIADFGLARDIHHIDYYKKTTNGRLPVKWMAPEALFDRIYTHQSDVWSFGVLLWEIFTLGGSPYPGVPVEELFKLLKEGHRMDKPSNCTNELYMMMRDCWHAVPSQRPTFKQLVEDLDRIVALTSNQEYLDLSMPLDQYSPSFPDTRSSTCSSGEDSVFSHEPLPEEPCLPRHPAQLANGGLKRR
T1 sequence (P21802 22-821 K310R/N549K): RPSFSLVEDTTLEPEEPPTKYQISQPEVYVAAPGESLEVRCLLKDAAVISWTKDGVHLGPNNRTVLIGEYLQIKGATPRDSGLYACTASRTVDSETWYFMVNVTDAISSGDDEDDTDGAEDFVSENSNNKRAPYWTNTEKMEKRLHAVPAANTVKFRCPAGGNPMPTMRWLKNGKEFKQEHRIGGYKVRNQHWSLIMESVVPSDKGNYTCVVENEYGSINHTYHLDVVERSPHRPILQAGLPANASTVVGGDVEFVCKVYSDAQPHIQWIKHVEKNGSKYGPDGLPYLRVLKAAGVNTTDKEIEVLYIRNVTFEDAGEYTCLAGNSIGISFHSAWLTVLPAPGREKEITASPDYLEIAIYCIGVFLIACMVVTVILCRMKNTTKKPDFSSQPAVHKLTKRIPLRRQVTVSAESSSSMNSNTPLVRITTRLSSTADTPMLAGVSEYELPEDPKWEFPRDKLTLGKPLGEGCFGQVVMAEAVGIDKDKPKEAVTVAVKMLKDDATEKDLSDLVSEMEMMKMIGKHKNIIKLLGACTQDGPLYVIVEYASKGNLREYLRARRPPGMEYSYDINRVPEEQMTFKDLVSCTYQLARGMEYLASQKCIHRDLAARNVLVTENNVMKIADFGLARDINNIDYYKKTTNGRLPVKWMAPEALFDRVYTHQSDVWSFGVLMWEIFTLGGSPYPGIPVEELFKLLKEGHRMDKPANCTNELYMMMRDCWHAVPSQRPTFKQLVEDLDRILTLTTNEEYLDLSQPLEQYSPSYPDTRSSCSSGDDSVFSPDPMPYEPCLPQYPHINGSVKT

Structure (SMILES) | IC50 (FGFR2) [nM] | IC50 (FGFR1) [nM] | IC50 (FGFR3) [nM] | FGFR1 IC50/FGFR2 IC50 (FGFR2) | FGFR3 IC50/FGFR2 IC50 (FGFR2)
C=CC(=O)N1CC2(CC(c3c(-c4ccc(Oc5ncccn5)cc4)c4c(N)ncnc4n3C)C2)C1 [Example 3, 1-(6-(4-amino-7-methyl-5-(4-(pyrimidin-2-yloxy)phenyl)-7H-pyrrolo[2,3-d]pyrimidin-6-yl)-2-azaspiro[3.3]heptan-2-yl)prop-2-en-1-one] | > 100 | > 100 | > 100 | – | –
C=CC(=O)N1CCC2(CC=C(c3c(-c4ncccn4)c4c(N)ncnc4n3CCO)CC2)CC1 [Example 54, 1-(9-(4-amino-7-(2-hydroxyethyl)-5-(pyrimidin-2-yl)-7H-pyrrolo[2,3-d]pyrimidin-6-yl)-3-azaspiro[5.5]undec-8-en-3-yl)prop-2-en-1-one] | 1 to 10 | > 100 | > 100 | F (a selectivity ratio greater than 50 but less than or equal to 150) | G (a selectivity ratio greater than 150 but less than or equal to 500)
C=CC(=O)N1CCC2(CC=C(c3c(-c4ccc(OC)nc4)c4c(N)ncnc4n3C)CC2)CC1 [Example 30, 1-(9-(4-amino-5-(6-methoxypyridin-3-yl)-7-methyl-7H-pyrrolo[2,3-d]pyrimidin-6-yl)-3-azaspiro[5.5]undec-8-en-3-yl)prop-2-en-1-one] | ≤ 1 | > 100 | > 100 | G (a selectivity ratio greater than 150 but less than or equal to 500) | H (a selectivity ratio greater than 500 but less than or equal to 1000)
C=CC(=O)N1CCC2(CC=C(c3c(-c4nccc(C)n4)c4c(N)ncnc4n3C)CC2)CC1 [Example 35, 1-(9-(4-amino-7-methyl-5-(4-methylpyrimidin-2-yl)-7H-pyrrolo[2,3-d]pyrimidin-6-yl)-3-azaspiro[5.5]undec-8-en-3-yl)prop-2-en-1-one] | 10 to 30 | > 100 | > 100 | F (a selectivity ratio greater than 50 but less than or equal to 150) | G (a selectivity ratio greater than 150 but less than or equal to 500)
C=CC(=O)N1CCC2(CC=C(c3c(-c4cncc(F)c4)c4c(N)ncnc4n3C)CC2)CC1 [Example 27, 1-(9-(4-amino-5-(5-fluoropyridin-3-yl)-7-methyl-7H-pyrrolo[2,3-d]pyrimidin-6-yl)-3-azaspiro[5.5]undec-8-en-3-yl)prop-2-en-1-one] | 1 to 10 | > 100 | > 100 | F (a selectivity ratio greater than 50 but less than or equal to 150) | H (a selectivity ratio greater than 500 but less than or equal to 1000)
C=CC(=O)N1CCC2(CC=C(c3c(-c4ncc5c(n4)CCO5)c4c(N)ncnc4n3C)CC2)CC1 [Example 48, 1-(9-(4-amino-5-(6,7-dihydrofuro[3,2-d]pyrimidin-2-yl)-7-methyl-7H-pyrrolo[2,3-d]pyrimidin-6-yl)-3-azaspiro[5.5]undec-8-en-3-yl)prop-2-en-1-one] | 1 to 10 | > 100 | > 100 | H (a selectivity ratio greater than 500 but less than or equal to 1000) | J (a selectivity ratio greater than 2000)
C=CC(=O)N1CCC2(CC=C(c3c(C(C)C)c4c(N)ncnc4n3C)CC2)CC1 [Example 15, 1-(9-(4-amino-5-isopropyl-7-methyl-7H-pyrrolo[2,3-d]pyrimidin-6-yl)-3-azaspiro[5.5]undec-8-en-3-yl)prop-2-en-1-one] | 10 to 30 | > 100 | > 100 | – | F (a selectivity ratio greater than 50 but less than or equal to 150)
C=CC(=O)N1CCC2(CC=C(c3c(-c4ncco4)c4c(N)ncnc4n3C)CC2)CC1 [Example 53, 1-(9-(4-amino-7-methyl-5-(oxazol-2-yl)-7H-pyrrolo[2,3-d]pyrimidin-6-yl)-3-azaspiro[5.5]undec-8-en-3-yl)prop-2-en-1-one] | > 100 | > 100 | > 100 | – | –
C=CC(=O)N1CCC2(CC=C(c3c(-c4ccncn4)c4c(N)ncnc4n3C)CC2)CC1 [Example 60, 1-(9-(4-amino-7-methyl-5-(pyrimidin-4-yl)-7H-pyrrolo[2,3-d]pyrimidin-6-yl)-3-azaspiro[5.5]undec-8-en-3-yl)prop-2-en-1-one] | 10 to 30 | > 100 | > 100 | – | F (a selectivity ratio greater than 50 but less than or equal to 150)
C=CC(=O)N1CCC2(CC=C(c3c(-c4ncc(OC5COC5)cn4)c4c(N)ncnc4n3C)CC2)CC1 [Example 46, 1-(9-(4-amino-7-methyl-5-(5-(oxetan-3-yloxy)pyrimidin-2-yl)-7H-pyrrolo[2,3-d]pyrimidin-6-yl)-3-azaspiro[5.5]undec-8-en-3-yl)prop-2-en-1-one] | 1 to 10 | > 100 | > 100 | H (a selectivity ratio greater than 500 but less than or equal to 1000) | J (a selectivity ratio greater than 2000)
C=CC(=O)N1CCC2(CC=C(c3c(-c4cccnn4)c4c(N)ncnc4n3C)CC2)CC1 [Example 61, 1-(9-(4-amino-7-methyl-5-(pyridazin-3-yl)-7H-pyrrolo[2,3-d]pyrimidin-6-yl)-3-azaspiro[5.5]undec-8-en-3-yl)prop-2-en-1-one] | 10 to 30 | > 100 | > 100 | G (a selectivity ratio greater than 150 but less than or equal to 500) | G (a selectivity ratio greater than 150 but less than or equal to 500)
C=CC(=O)N1CCC2(CCC(c3c(-c4ccc(Oc5ncccn5)cc4)c4c(N)ncnc4n3C)CC2)CC1 [Example 6, 1-(9-(4-amino-7-methyl-5-(4-(pyrimidin-2-yloxy)phenyl)-7H-pyrrolo[2,3-d]pyrimidin-6-yl)-3-azaspiro[5.5]undecan-3-yl)prop-2-en-1-one] | > 100 | > 100 | > 100 | – | –
C=CC(=O)N1CCC2(CC=C(c3c(-c4ccc(OC5CC5)cc4)c4c(N)ncnc4n3C(F)F)CC2)CC1 [Example 36, 1-(9-(4-amino-5-(4-cyclopropoxyphenyl)-7-(difluoromethyl)-7H-pyrrolo[2,3-d]pyrimidin-6-yl)-3-azaspiro[5.5]undec-8-en-3-yl)prop-2-en-1-one] | 1 to 10 | 30 to 100 | > 100 | F (a selectivity ratio greater than 50 but less than or equal to 150) | G (a selectivity ratio greater than 150 but less than or equal to 500)
C=CC(=O)N1CCC2(CC=C(c3c(-c4ccc(OC5CC(C)C5)nc4)c4c(N)ncnc4n3C)CC2)CC1 (stereo not shown) [Example 25, 1-(9-(4-amino-7-methyl-5-(6-(3-methylcyclobutoxy)pyridin-3-yl)-7H-pyrrolo[2,3-d]pyrimidin-6-yl)-3-azaspiro[5.5]undec-8-en-3-yl)prop-2-en-1-one] | 1 to 10 | 30 to 100 | > 100 | – | F (a selectivity ratio greater than 50 but less than or equal to 150)
